Experimental data reported in PubChem BioAssay AID179 (DTP/NCI, 2004).
“And” between values parts separate entries of the source, which are not always exact repeats. Equal values may be shown once. The source made the active and inactive calls.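 Rule for the calls: active = compounds giving half or more protection of infected cells from virus-caused growth loss, again on retest; inactive = the rest.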 Where a SMILES comes first, the peptide text is derived from it. [ ]: non-standard residue; d: D form. The star is where a group is joined. ξ: configuration not given here. NMeF = CN[C@@H](Cc1ccccc1)C(=O)O; NMeN = CN[C@@H](CC(N)=O)C(=O)O; NMeV = CN[C@H](C(=O)O)C(C)C; ξNMeV = CNC(C(=O)O)C(C)C; Boc = CC(C)(C)OC(=O)*; ξNMeA = CNC(C)C(=O)O; ξV = CC(C)C(N)C(=O)O

Tested on: CEM cells HIV-1 protection, formazan growth assay
Assay: NCI AIDS Antiviral Assay
Details: for IC50: measured here: growth of uninfected CEM cells
How it was run: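 Soluble formazan readout of cell growth; CEM cells ± HIV-1; 5 drug concs. ≥50% protection → retest; ≥50% again = moderately active; reproducible 100% = confirmed active.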

SMILES | EC50 [µM] | IC50 | outcome
C[C@@H]1C[C@@]2(O)[C@@H]3C[C@H](F)C4=CC(=O)CC[C@]4(C)[C@H]3[C@@H](O)C[C@]2(C)[C@@]1(O)C(=O)CO | > 200 | 178 µM | –
[Cl-].[Rh+3].c1ccc(-c2ccnc3c2ccc2c(-c4ccccc4)ccnc23)cc1.c1ccc(-c2ccnc3c2ccc2c(-c4ccccc4)ccnc23)cc1.c1ccc(-c2ccnc3c2ccc2c(-c4ccccc4)ccnc23)cc1 | > 11 | 7.08 µM | –
C[C@H]1c2c([nH]c(=O)[nH]c2=O)O[C@@H]1c1ccccc1 | > 200 | > 200 µM | –
CN(C)CCC1(c2ccccc2)C=Cc2ccccc21 (configuration not stated) | > 200 | 107 µM | –
Nc1nc(Cl)c(/C=N\O)c(NCC2(CO)CC(=O)C2)n1 | > 200 | 17 µM | –
CC(=O)C(O)N1C(=O)C=CC1=O (configuration not stated) | > 50.1 | 1.86 µM | –
OC(c1ccccc1)c1ccc(C(O)c2ccccc2)cc1 (configuration not stated) | > 123 | > 123 µM | –
O=C(O)CCc1ccc(O)c(O)c1 | – | – | inactive
Cc1nc2c(N)n[nH]c(=O)n2n1 | > 200 | > 200 µM | –
O=S(=O)(Nc1ccc(NS(=O)(=O)c2ccccc2)c(N2N=N2)c1)c1ccccc1 | > 200 | 51.3 µM | –
COc1ccc2c(C3(C)OC(=O)c4ccccc43)cccc2c1 (configuration not stated) | > 40.7 | > 40.7 µM | –
CCN(CC)CCCNc1nccc2c(C)c3[nH]c4ccncc4c(=O)c3cc12 | > 174 | 1.07 µM | –
CC(C)C(NC(=O)C(Cc1ccccc1)NC(=O)[C@H]1CCC[C@H]1NC(=O)C(N)Cc1ccc(O)cc1)C(N)=O (some centres not stated) | – | – | inactive
CCOc1ccccc1-c1nc2c(s1)C(=O)c1ccccc1C2=O | > 200 | 32.4 µM | –
CC1(C)COC(c2ccc(C(=O)c3ccc(Cl)cc3)cc2)=N1 | > 200 | 81.3 µM | –
CSc1nc2c(c(N(C)C)n1)C(O)n1c(nc3ccccc31)S2 (configuration not stated) | > 200 | > 200 µM | –
CS(=O)(=O)O[C@H]1CN2C[C@@H](O)[C@@H](O)[C@H]2[C@H]1CO | > 200 | > 200 µM | –
COC(=O)C(C)NC1=C(Cl)C(=O)C(NC(C)C(=O)OC)=C(Cl)C1=O (configuration not stated) | – | – | inactive
Cc1cc(C)n(-c2nc(-c3ccccc3)cs2)n1 | > 200 | 72.4 µM | –
Oc1cc2cccc[n+]2c2cc(Cl)ccc12 | > 200 | 91.2 µM | –
CCN(CCCc1ccccc1)CCCc1ccccc1 | > 200 | 105 µM | –

SMILES | EC50 [µM] | IC50 | outcome
C[C@H]1[C@H](N2CCCC2)O[Si](C(C)(C)C)(C(C)(C)C)[C@@H]1C | > 200 | > 200 µM | –
Cc1cn(C2CC(N(O)Cc3ccccc3)C(CO[Si](C)(C)C(C)(C)C)O2)c(=O)[nH]c1=O (configuration not stated) | > 200 | 12 µM and 36.3 µM | –
Cc1nc(/C=C2\C(=O)C=Cc3ccccc32)c(O)o1 | > 102 | > 102 µM | –
CSc1ccc(/C=N\C(=N)SN)cc1C | > 200 | 18.6 µM | –
O=c1[nH]c(=O)n(C2C=CC(CO)O2)cc1C(OCC(F)(F)F)OCC(F)(F)F (configuration not stated) | > 141 | 72.4 µM | –
C[C@]12CC[C@H](OC3OC(CO)C(O)C(O)C3O)C[C@H]1CC[C@@H]1[C@@H]2CC[C@]2(C)[C@@H](C3=CCOC3=O)CC[C@]12O (some centres not stated) | > 100 | 0.0661 µM | –
COC(=O)C1=C(C(=O)OC)C(OO)(c2ccccc2)OC1=O (configuration not stated) | > 200 | > 200 µM | –
Clc1ccc(Oc2ccc(N=Cc3ccc(Cl)cc3Cl)cc2Cl)cc1 | > 200 | 5.37 µM | –
Cn1c(=O)c2c(nc3sc4c(n32)C(=O)c2c(O)ccc(O)c2C4=O)n(C)c1=O | 0.2 | 0.257 µM | –
CCOC(=O)c1[nH]c(-c2[nH]c(-c3[nH]c(-c4[nH]c(C(=O)OCC)c(C)c4C(=O)OCC)c(C(=O)OCC)c3C)c(C)c2C(=O)OCC)c(C(=O)OCC)c1C | > 200 | > 200 µM | –
Cc1ccc(C2=C/C(=C/c3ccc(N(CCC#N)CCC#N)cc3)C(=O)O2)cc1C | > 13.2 | > 13.2 µM | –
O=C1CSC(=O)N1c1ccccc1 | > 186 | > 186 µM | –
CN(C(=O)C12C3C4C1C1C2C3C41I)C(C)(C)C (configuration not stated) | > 251 | > 251 µM | –
C1COCCOP2(N3CC3)=NP(N3CC3)(=NP(N3CC3)(N3CC3)=N2)OCCOCCO1 (configuration not stated) | > 200 | 21.4 µM | –
CNc1ccc(/C=C2\C=Cc3ccccc32)cc1Br | > 12 | > 12 µM | –
C=C(C)C1CC=C(C)[C@](O)(C2(O)C[C@H](C(=C)C)CC=C2C)C1 (some centres not stated) | – | – | inactive
CCOC(=O)NN(C(=O)OCC)C(=C(c1ccccc1)N1CCOCC1)N(NC(=O)OCC)C(=O)OCC | > 200 | > 200 µM | –
CN(C)C(=O)/N=N/C(=O)N(C)C | > 89.1 | 67.6 µM | –
COc1ccc(/C=C\c2cc(OC)c(OC)c(OC)c2)cc1OC(=O)CC(NC(=O)OC(C)(C)C)C(=O)OC(C)(C)C (configuration not stated) | > 2 | 0.00331 µM | –
O=C(O)c1cc2c(cc1C(=O)O)C(=O)C(c1ccccc1)C2=O | > 200 | > 200 µM | –
Cc1c(C)c([N+](=O)[O-])c2c(c1N)C(=O)c1ccccc1C2=O | – | – | inactive

SMILES | EC50 [µM] | IC50 | outcome
Cc1ccc(C(=O)c2ccccc2C(=O)O)cc1C(=O)O | > 200 | > 200 µM | –
COC(=O)C1Cc2c(C)cccc2C1=O (configuration not stated) | > 200 | 110 µM | –
CCOC(=O)[C]1([Bi]([CH3])[CH3])N=NC(C(=O)OC)=C1C(=O)OC (configuration not stated) | 17.4 | 26.3 µM | –
O=[N+]([O-])c1nccn1CC(O)CO (configuration not stated) | > 661 | > 661 µM | –
Cc1ccc(S(=O)(=O)c2c(C)cc(C)cc2C)cc1 | > 200 | 12.6 µM | –
O=C(O)CCC(NC(=O)c1ccc(Nc2nc3ccc(C(F)(F)F)cc3nc2C(=O)O)cc1)C(=O)O (configuration not stated) | > 200 | > 200 µM | –
c1cc(-c2ccc(-c3ccsc3)s2)cs1 | > 200 | > 200 µM | –
COC(=O)C1=CC2CC1C(S(=O)(=O)c1ccccc1)C2S(=O)(=O)c1ccccc1 (configuration not stated) | > 100 | 4.57 µM | –
CC(C)=CCCC1(C)C=Cc2c(ccc3c(C)noc23)O1 (configuration not stated) | > 18.2 | > 18.2 µM | –
COC(=O)C(C)N(C)C(=O)[C@H](CC(N)=O)N(C)C(=O)[C@@H]1CCCN1C(=O)[C@H](C(C)C)N(C)C(=O)C(C(C)C)N(C)C(=O)[C@H](Cc1ccccc1)N(C)C(=O)C(NC(=O)OC(C)(C)C)C(C)C (some centres not stated) (Boc-[ξV][NMeF][ξNMeV][NMeV]P[NMeN][ξNMeA]-OMe) | > 100 | 17.8 µM | –
COc1ccc(N=Nc2c(N)nn3cc4c(nc23)-c2ccccc2CC4)cc1 | > 200 | 2.57 µM | –
CC1CN(C2C=CC(=O)CC2)C(=O)NC1=O (configuration not stated) | > 1120 | 7.76 µM | –
CCN(CCCl)c1cc(C(=O)Nc2cc(NC(=O)c3cc(N(CC)CCCl)c([N+](=O)[O-])cc3[N+](=O)[O-])cc(C(=O)NCCN(C)C)c2)c([N+](=O)[O-])cc1[N+](=O)[O-] | > 200 | 126 µM | –
O=C(CCCl)Nc1c(Cl)cccc1Cl | – | – | inactive
NC1=NC(=O)C(CC(=O)Nc2ccc(Cl)cc2Cl)S1 (configuration not stated) | > 794 | 372 µM | –
CC12CCCC(C(=O)O)(C1)[C@H](C(C)(C)C(=O)O)CC2 (some centres not stated) | > 200 | > 200 µM | –
C#CCNC(=O)NCCCC(NC(C)=O)C(=O)NCc1ccccc1 (configuration not stated) | – | – | inactive
COc1cc(/C=C/C(=O)OC[C@]23O[C@H]2[C@@H](OC2OC(C)C(O)C(O)C2O)C2C=CO[C@@H](OC4OC(CO)C(O)C(O)C4O)C23)ccc1O (some centres not stated) | > 200 | > 200 µM | –
O=C(Nc1nc2c(ncn2C2OC(CO)C(O)C2O)c(=O)[nH]1)c1ccccc1 (configuration not stated) | > 646 | 251 µM | –
CCOP(=O)(OCC)OC1CC(n2cnc3c(N(CC)CC)ncnc32)OC1CO[Si](C)(C)C(C)(C)C (configuration not stated) | > 200 | 31.6 µM | –
OCCC[N+]12CCCN1CCC2 | > 200 | > 200 µM | –

SMILES | EC50 [µM] | IC50 | outcome
O=c1[nH]c2cc(Cl)ccc2n1C1CCN(CCCC(c2ccc(F)cc2)c2ccc(F)cc2)CC1 | > 200 | 18.6 µM | –
Cc1[nH]c2nccn2c(=O)c1CCO | > 200 | > 200 µM | –
O=C(CC(O)CCc1ccc(O)c(O)c1)O[C@H]1Cc2c(O)cc(O)cc2O[C@H]1c1ccc(O)c(O)c1 (some centres not stated) | > 200 | 14.1 µM | –
CC(=O)c1ccc(-c2oc(-c3ccccc3)cc2-c2ccc3c(c2)OCO3)s1 | > 200 | 22.9 µM | –
O=c1oc2ccccc2c(O)c1C=NC(=S)c1ccncc1 | > 200 | 182 µM | –
O=C(O)N1CCc2c(sc3ccccc23)C1 | > 95.5 | > 95.5 µM | –
C=CCOC(=O)N(C)CC(OC(=O)C(C)(C)C)C1(c2ccc3c(c2)OCO3)C=CC(=O)C=C1 (configuration not stated) | – | – | inactive
Cc1cc(C)nc(NS(=O)(=O)c2ccc(NC(=O)COC(=O)c3cccc4c(=O)c5ccccc5[nH]c34)cc2)n1 | – | – | inactive
Cc1c(N)nc(C(CC(N)=O)NCC(N)C(N)=O)nc1C(=O)NC(C(=O)NC(C)C(O)C(C)C(=O)NC(C(=O)NCCc1nc(-c2nc(C(=O)NCCCNC(C)c3ccccc3)cs2)cs1)C(C)O)C(OC1OC(CO)C(O)C(O)C1OC1OC(CO)C(O)C(OC(N)=O)C1O)c1cnc[nH]1 (configuration not stated) | – | – | inactive
N#Cc1ccccc1Nc1ccccc1S | > 16.6 | > 16.6 µM | –
Cc1cc(N(CCC#N)S(=O)(=O)c2ccccc2)ccc1/C=C1N=C(/C=C/c2ccccc2)OC\1=O | – | – | inactive
CCOC(=O)/C(C#N)=C/c1coc2cc(C)cc(C)c2c1=O | > 200 | 11 µM | –
CCC1(CCCC=C(c2cc(Cl)c(OC)c(C(=O)OC)c2)c2cc(Cl)c(OC)c(C(=O)OC)c2)OCCO1 | > 200 | 148 µM | –
COc1ccc2c3c([nH]c2c1[N+](=O)[O-])C(C)=NCC3 | – | – | inactive
Cc1cccc2oc3c(CC(=O)O)cccc3c(=O)c12 | > 200 | > 100 µM | –
CCNC(=O)Nc1ccc(Cl)cn1 | > 200 | 132 µM | –
N#C/C(=C\c1ccccc1[N+](=O)[O-])C(=O)O | > 603 | 363 µM | –
COc1cc(OC)c(-c2cc(=O)c3c(OC)c(OC)c(OC)c(OC)c3o2)cc1OC | > 200 | 19.5 µM | –
O=C1OCC(Cc2ccc3c(c2)OCO3)[C@H]1Cc1ccccc1 (some centres not stated) | > 200 | 186 µM | –
